Experimental data: PMC11628855 (Acta Pharmaceutica Sinica. B, 2024)

Molecular target: T1, GacS (12–166)-His (Pseudomonas aeruginosa, UniProt G3XD98)
T1 sequence (G3XD98 12-166): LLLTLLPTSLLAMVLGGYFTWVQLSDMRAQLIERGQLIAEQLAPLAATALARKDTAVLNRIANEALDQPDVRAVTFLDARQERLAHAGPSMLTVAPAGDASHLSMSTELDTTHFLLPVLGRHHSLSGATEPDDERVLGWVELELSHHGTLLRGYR
Test: microscale thermophoresis
Format: binding

CCCCCCNC(=O)CNc1nc2ccc(OC)cc2s1 [SN12, N-Hexyl-2-((6-methoxybenzo[d]thiazol-2-yl)amino)acetamide]
Kd: 12.8 ± 0.68 µM
